Data on 2 molecules can be found in article PMC10619691, “Effect of cyclic substituents on the anti-cancer activity and DNA interaction of ruthenium(II) bis-phenanthroline dipyridoquinoline” (Frontiers in Molecular Biosciences, 2023).

The structures appear in SMILES notation.

One assay has as its system HeLa cells. In words: cellular localization by confocal fluorescence microscopy. It counts as cell-based, human. The note with it: 50 μM, 2 h incubation, co-localization with DAPI. Here is the method: This was further confirmed by the co-localization of these complexes with a nuclear counterstain (DAPI) (Figure 2).
Fluorescence microscopy was used to study cellular localization. HeLa cells were seeded on autoclaved coverslips in the 6-well plate and incubated at 37°C for 48 h, after which the culture media were replaced with media containing VNK-572 (50 μM) and VNK-754 (50 μM), respectively, and further incubation was performed for 2 h. Following this, the cells were fixed with Carnoy’s solution and washed twice with PBS thereafter. Finally, the HeLa cells were counterstained with DAPI, and the seeded coverslips were inverted and placed on slides for examination. A Leica confocal microscope was used for the observation of the samples using a magnification of ×63.

The next assay deals with DU145 prostate cancer. In words: sulphorhodamine B (SRB) cytotoxicity assay. The note with it: 72 h incubation, mean ± SEM. It is filed as cell-based, human. Here is the method: (§1) The cytotoxicity profile of the ruthenium complexes […]-572, and POW-12A was assessed in various cancer cell lines, namely, human cervical cancer HeLa, prostate cancer cell line DU145, breast cancer cell line MDAMB231MB231, ovarian cancer cell line A2780, and cisplatin-resistant ovarian cancer cell line A2780-CP70, using the preferred screen of the National Cancer Institute, the sulphorhodamine (SRB) dye assay, and the trypan blue cell viability assay ([Skehan et al., 1990]; [Houghton et al., 2007]; [Strober, 2001]). To determine their selective toxicity profile, these complexes were also tested in a normal prostate cell line (PTN1A). From the similarity in chemical structures of the compounds, we deduced that a structure-activity relationship study will help elucidate key properties involved in the cytotoxic activity of this class of metal complexes. The sulphorhodamine B (SRB) assay was used to evaluate the cytotoxicity of each cancer line after treating them with the metal complexes in line with the previously established protocol ([Skehan et al., 1990]). A cell density of 3 × 10^4 cells/mL was treated with various concentrations (3, 10, 30, 50, and 100 μM) of each ruthenium complex by 1:200 dilutions of stock solutions (in DMSO) in culture media, using DMSO as a control. Then, 100 μL of the cell-drug suspension was added to the respective wells of a 96-well plate and incubated at 37°C for 72 h in a CO2-containing incubator. Following this, the cells were fixed using 25 ul of Carnoy's solution and left in the fridge (4°C) for 1 h. The plates were then rinsed with running water and tapped on paper to remove dead cells. The cells were then stained with 100 μL of sulphorhodamine B dye and left for 30 min, after which the dye was washed off using 1% acetic acid, and the plate was left to dry in the oven (60°C). The stained cells were then treated with 100 μL of Tris base (10 mM, pH 10) to solubilize the dye stain. Finally, the plates were analyzed using an Omega plate reader. Each assay was conducted in triplicate. % Cell response=Average of treated cells / Average of control cells x 100.
Background: In SRB staining, fixed cells bind dye roughly in proportion to their protein.

A further assay has as its system HeLa cervical cancer. In words: sulphorhodamine B (SRB) cytotoxicity assay. It counts as cell-based, human. The note with it: 72 h incubation, mean ± SEM. Here is the method:
as §1

The test system of the next assay is MDA-MB-231 (TNBC). Kind of assay: sulphorhodamine B (SRB) cytotoxicity assay. It is filed as cell-based, human. The note with it: 72 h incubation, mean ± SEM. The protocol:
as §1

The test system of a further assay is PNT1A normal prostate. In words: sulphorhodamine B (SRB) cytotoxicity assay. It is filed as cell-based, human. The conditions noted are these: for IC50: SRB assay, 72 h incubation, mean ± SEM. Here is the method: as §1
Assay [1] deals with A280-CP70 cisplatin-resistant ovarian cancer. In words: sulphorhodamine B (SRB) cytotoxicity assay. It counts as cell-based, human. The conditions noted are these: SRB assay, 72 h incubation; mean ± SEM. Here is the method: as §1
A further assay has as its system A2780 ovarian cancer. In words: sulphorhodamine B (SRB) cytotoxicity assay. It is filed as cell-based, human. The conditions noted are these: for IC50: SRB assay, 72 h incubation, mean ± SEM. Here is the method:
as §1

The test system of a further assay is CT-DNA. Kind of assay: viscometry of DNA with bound complex. It is filed as binding, calf. The conditions noted are these: 25°C. An excerpt:
This reduction reflects increased flexibility of the DNA due to electrostatic and steric factors, which is consistent with the LD results for POW-12A but can also occur if the DNA becomes kinked or bent upon binding a small molecule.
An uncalibrated Cannon-Manning extra-low charge semi-micro viscometer (size 75) was used to measure the relative intrinsic viscosity of dilute DNA solutions, according to the manufacturer’s instructions (Cannon Instrument Company) and as described previously ([MoradpourHafshejani et al., 2013]). The viscometer was immersed in a water bath thermostated at 25°C. The DNA concentration and viscometer volume ([…]) were kept constant for a series of added dye concentrations. The flow time for water was ∼177 s, and that for DNA solutions was >245 s. Measurements were carried out in triplicate and provided standard deviations of <±1 s. The flow times are related to the relative intrinsic viscosity according to Eq. 1, where [η] is the intrinsic viscosity in the presence of dye and [η]0 is the intrinsic viscosity of free DNA. t0, td, and tx represent the flow times for buffer only, naked DNA, and dye-bound DNA, respectively. […] If the persistence length is reduced or the DNA is bent (dynamically or statically), the slope will be lowered. tx−tt/td−tt3=η/η03=L/L0=1+αr. (1)

What is called IC50 is the point on the concentration scale where inhibition reaches its midpoint. Take `F[P-](F)(F)(F)(F)F.F[P-](F)(F)(F)(F)F.[Ru+2].c1cnc2c(c1)c1ncc3c(c1c1cccnc12)CCC3.c1cnc2c(c1)ccc1cccnc12.c1cnc2c(c1)ccc1cccnc12` [POW-12A]: the cellular localization result in the assay on HeLa cells was “penetrate the nucleus”. Moreover, the IC50 is 35 ± 6.93 µM with DU145 prostate cancer; 63 ± 6.35 µM with HeLa cervical cancer; greater than 100 µM in the assay on MDA-MB-231 (TNBC); greater than 100 µM in the assay with PNT1A normal prostate; 35 ± 3.47 µM in assay [1]; 12 ± 1.73 µM in the assay on A2780 ovarian cancer. Besides, in the assay on CT-DNA, the “effect on DNA viscosity / length” value is given as “reduces the viscosity of DNA”.

`F[P-](F)(F)(F)(F)F.F[P-](F)(F)(F)(F)F.[Ru+2].c1cnc2c(c1)c1ncc3c(c1c1cccnc12)CCCC3.c1cnc2c(c1)ccc1cccnc12.c1cnc2c(c1)ccc1cccnc12` [VNK-572]: the cellular localization result in the assay on HeLa cells is reported as “penetrate the nucleus”. Further, the IC50 in the assay with DU145 prostate cancer was 19 ± 2.31 µM; in the assay on HeLa cervical cancer, 52 ± 6.35 µM; with MDA-MB-231 (TNBC) it was greater than 100 µM; with PNT1A normal prostate it was greater than 100 µM; in assay [1], 15 ± 2.89 µM; with A2780 ovarian cancer it was 10 ± 4.04 µM. The “fold difference in sensitivity between normal prostate cells (PNT1A) and prostate cancer cell line DU145” value with PNT1A normal prostate (from SRB IC50 values) is “more than five-fold”. Besides, the “fold difference between the anti-cancer activities of VNK-754 and VNK-572” value with A2780 ovarian cancer (more susceptible cancer cell lines (A2780 and DU145)) is listed as “seven-fold”. Moreover, in the assay on CT-DNA, the “effect on DNA viscosity / length” value is given as “elongates DNA”.
